From patent US9226498B2
Like-named read-outs stand apart in the source and are kept apart here.

Tests used:
[1] = tested on: tame oats (AVESA); assay: Trial III field trial, postemergence crop injury; assay type: in vivo, Avena sativa
[2] = tested on: tame oats (AVESA); assay: Trial IV field trial, postemergence crop injury; assay type: in vivo, Avena sativa
[3] = tested on: spring barley (HORVS); assay: Trial IV cont. field trial, postemergence crop injury; assay type: in vivo, Hordeum vulgare L
[4] = tested on: spring barley (HORVS); assay: Trial V field trial, postemergence crop injury; assay type: in vivo, Hordeum vulgare L
[5] = tested on: spring wheat (TRZAS); settings: Trial I
Description: (§1) Five small plot field trials were established across various ecozones to evaluate the crop safety of florasulam and 4-amino-3-chloro-6-(4-chloro-2-fluoro-3-methoxy-phenyl)pyridine-2-carboxylic acid TEA (triethylamine) salt or of florasulam and 4-amino-3-chloro-6-(4-chloro-2-fluoro-3-methoxyphenyl)pyridine-2-carboxylic acid methyl ester, when applied alone or in combination, on spring cereals including spring wheat, spring barley and tame oats.
(§2) In Trials III, IV, and V the methyl ester of the compound of formula (I) was applied alone at rates of 5-10 g ae/ha using a formulation containing 200 grams acid equivalent per kilogram (g ae/kg) of the methyl ester with 0.5% v/v Turbocharge adjuvant. […] All herbicide treatments were applied post-emergence in the spring to early summer Herbicides were applied with bicycle- or tractor-mounted sprayers using carbon dioxide (CO2) as a propellant. The sprayers delivered a uniform spray pattern that provided thorough coverage of the foliage using a 100 liter per hectare (L/ha) spray volume. At the time of herbicide applications, spring barley, spring wheat and tame oats were at the two leaf stage to the seven leaf, three tiller stage. Phytotoxicity to cereal crops was visually assessed as percent overall injury, compared to an untreated control plot. The overall injury assessments were based on visual ratings of growth inhibition, chlorosis, and delay in maturity. At late ratings, percent visual seed head deformity was also assessed. Trials were designed as randomized complete blocks with four replicates. In general, three to four replicates were assessed for each treatment.
(§3) Colby's equation is: Expected=A+B−(A×B/100) • A=observed efficacy of active ingredient A at the same concentration as used in the mixture; • B=observed efficacy of active ingredient B at the same concentration as used in the mixture.

[6] = tested on: spring wheat (TRZAS); settings: Trial II
Description: as §1, §2, §3

COC(=O)c1nc(-c2ccc(Cl)c(OC)c2F)cc(N)c1Cl [Compound II]
Percent (%) Visual Head Deformity 70 DAT Obs ([1]; Compound II 5 g ae/ha alone): 7.5 cd %
Percent (%) Visual Injury 7 DAT Obs ([1]; Compound II 5 g ae/ha alone): 0.0 d %
Percent (%) Visual Injury 16 DAT Obs ([1]; Compound II 5 g ae/ha alone): 2.5 de %
Percent (%) Visual Injury 31 DAT Obs ([1]; Compound II 5 g ae/ha alone): 5.0 fg %
Percent (%) Visual Injury 70 DAT Obs ([1]; Compound II 5 g ae/ha alone): 15.8 def %
Percent (%) Visual Head Deformity 70 DAT Obs ([1]; Compound II 10 g ae/ha alone): 15.0 bcd %
Percent (%) Visual Injury 7 DAT Obs ([1]; Compound II 10 g ae/ha alone): 0.0 d %
Percent (%) Visual Injury 16 DAT Obs ([1]; Compound II 10 g ae/ha alone): 13.8 cde %
Percent (%) Visual Injury 31 DAT Obs ([1]; Compound II 10 g ae/ha alone): 25.0 de %
Percent (%) Visual Injury 70 DAT Obs ([1]; Compound II 10 g ae/ha alone): 33.8 bcd %
Percent (%) Visual Injury 7 DAT Observed ([2]; Compound II 5 g ae/ha alone): 0.0 d %
Percent (%) Visual Injury 14 DAT Observed ([2]; Compound II 5 g ae/ha alone): 2.0 cde %
Percent (%) Visual Injury 28 DAT Observed ([2]; Compound II 5 g ae/ha alone): 3.3 de %
Percent (%) Visual Injury 53 DAT Observed ([2]; Compound II 5 g ae/ha alone): 2.5 fgh %
Percent (%) Visual Injury 7 DAT Observed ([2]; Compound II 10 g ae/ha alone): 1.3 bcd %
Percent (%) Visual Injury 14 DAT Observed ([2]; Compound II 10 g ae/ha alone): 9.5 abc %
Percent (%) Visual Injury 28 DAT Observed ([2]; Compound II 10 g ae/ha alone): 14.5 ab %
Percent (%) Visual Injury 53 DAT Observed ([2]; Compound II 10 g ae/ha alone): 9.4 abc %
Percent (%) Visual Head Deformity Obs ([3]; Compound II 5 g ae/ha alone): 0.0 a %
Percent (%) Visual Injury 7 DAT Obs ([3]; Compound II 5 g ae/ha alone): 0.0 e %
Percent (%) Visual Injury 14 DAT Obs ([3]; Compound II 5 g ae/ha alone): 0.0 c %
Percent (%) Visual Injury 28 DAT Obs ([3]; Compound II 5 g ae/ha alone): 3.3 de %
Percent (%) Visual Injury 70 DAT Obs ([3]; Compound II 5 g ae/ha alone): 2.5 fgh %
Percent (%) Visual Head Deformity Obs ([3]; Compound II 10 g ae/ha alone): 1.3 a %
Percent (%) Visual Injury 7 DAT Obs ([3]; Compound II 10 g ae/ha alone): 0.0 e %
Percent (%) Visual Injury 14 DAT Obs ([3]; Compound II 10 g ae/ha alone): 0.0 c %
Percent (%) Visual Injury 28 DAT Obs ([3]; Compound II 10 g ae/ha alone): 14.5 ab %
Percent (%) Visual Injury 70 DAT Obs ([3]; Compound II 10 g ae/ha alone): 9.4 abc %
Percent (%) Head Deformity 64 DAT Obs ([4]; Compound II 5 g ae/ha alone): 0.3 b %
Percent (%) Injury Visual 15 DAT Obs ([4]; Compound II 5 g ae/ha alone): 0.5 a %
Percent (%) Visual Injury 27 DAT Obs ([4]; Compound II 5 g ae/ha alone): 1.0 c %
Percent (%) Visual Injury 49 DAT Obs ([4]; Compound II 5 g ae/ha alone): 0.0 c %
Percent (%) Head Deformity 64 DAT Obs ([4]; Compound II 10 g ae/ha alone): 21.8 ab %
Percent (%) Injury Visual 15 DAT Obs ([4]; Compound II 10 g ae/ha alone): 0.5 a %
Percent (%) Visual Injury 27 DAT Obs ([4]; Compound II 10 g ae/ha alone): 0.0 c %
Percent (%) Visual Injury 49 DAT Obs ([4]; Compound II 10 g ae/ha alone): 0.5 bc %

COc1c(Cl)ccc(-c2cc(N)c(Cl)c(C(=O)O)n2)c1F [Compound I]
Percent (%) Visual Incidence Head Deformity 71 DAT Obs ([5]; Compound I 17.5 g ae/ha alone): 20 d-g %
Percent (%) Visual Injury 71 DAT Obs ([5]; Compound I 17.5 g ae/ha alone): 12.5 cd %
Percent (%) Visual Incidence Head Deformity 71 DAT Obs ([5]; Compound I 35 g ae/ha alone): 60 a %
Percent (%) Visual Injury 71 DAT Obs ([5]; Compound I 35 g ae/ha alone): 32.5 a %
Percent (%) Visual Incidence Head Deformity 55 DAT Obs ([6]; Compound I 17.5 g ae/ha alone): 7.5 cde %
Percent (%) Visual Injury 55 DAT Obs ([6]; Compound I 17.5 g ae/ha alone): 5.8 de %
Percent (%) Visual Incidence Head Deformity 55 DAT Obs ([6]; Compound I 35 g ae/ha alone): 43.8 ab %
Percent (%) Visual Injury 55 DAT Obs ([6]; Compound I 35 g ae/ha alone): 35 a %

COc1ncc(F)c2nc(S(=O)(=O)Nc3c(F)cccc3F)nn12 [Florasulam, 2′,6′,8-trifluoro-5-methoxy[1,2,4]triazolo[1,5-c]pyrimidine-2-sulfonanilide, reference compound]
Percent (%) Visual Incidence Head Deformity 71 DAT Obs ([5]; Florasulam 5 g ai/ha alone): 0.0 g %
Percent (%) Visual Injury 71 DAT Obs ([5]; Florasulam 5 g ai/ha alone): 0 e %
Percent (%) Visual Incidence Head Deformity 55 DAT Obs ([6]; Florasulam 5 g ai/ha alone): 0.0 e %
Percent (%) Visual Injury 55 DAT Obs ([6]; Florasulam 5 g ai/ha alone): 0.0 e %
